Measurements as given in ChEMBL document CHEMBL1126844, “Hydroxylated 2-(5'-salicyl)naphthalenes as protein-tyrosine kinase inhibitors” (J Med Chem, 1993).

Target: Tyrosine-protein kinase Lck (Homo sapiens, UniProt P06239)
Assay: Inhibition of protein-tyrosine kinase p56lck

Tyrosine-protein kinase Lck, sequence (P06239 whole entry): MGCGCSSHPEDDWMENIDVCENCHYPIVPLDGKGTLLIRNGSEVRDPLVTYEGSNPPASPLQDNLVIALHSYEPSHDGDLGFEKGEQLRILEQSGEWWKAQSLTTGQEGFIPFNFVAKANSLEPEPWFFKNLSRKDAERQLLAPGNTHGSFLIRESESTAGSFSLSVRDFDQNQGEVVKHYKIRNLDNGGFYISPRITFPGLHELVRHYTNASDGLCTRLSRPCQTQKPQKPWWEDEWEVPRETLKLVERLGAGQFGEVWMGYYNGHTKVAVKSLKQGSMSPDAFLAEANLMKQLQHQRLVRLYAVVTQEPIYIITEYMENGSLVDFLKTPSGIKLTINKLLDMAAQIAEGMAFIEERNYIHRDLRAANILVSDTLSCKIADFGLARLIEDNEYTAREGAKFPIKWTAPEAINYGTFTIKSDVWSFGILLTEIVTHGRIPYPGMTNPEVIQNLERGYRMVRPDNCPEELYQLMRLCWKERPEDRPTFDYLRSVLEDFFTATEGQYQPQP

IC50 [µM]	SMILES
65	O=C(O)c1cc(-c2ccc3c(O)ccc(O)c3c2)ccc1O
> 200	O=C(O)c1cc(-c2ccc3ccccc3c2)ccc1O
150	O=C(O)c1cc(-c2ccc3cc(O)c(O)cc3c2)ccc1O
42	O=C(O)c1cc(-c2ccc3c(O)c(O)ccc3c2)ccc1O
